Paper PMC2746312, “A High-Throughput Approach for Identification of Novel General Anesthetics” (PLoS ONE, 2009)
“Also recorded” adds a separate entry of the source. Structures can show the parent of a compound that is named as a salt. Where two headings read alike, the source gives them in different places.

What was measured:
horse spleen apoferritin = molecular target: T1, horse spleen apoferritin (Equus caballus, UniProt P02791); assay: 1-AMA/apoferritin fluorescence competition assay, qHTS in 1,536-well format; type: binding; details: for inhibition at 77 µM: read-out: inhibition at maximal concentrations in qHTS
T1 sequence (P02791 2-175 limits assumed): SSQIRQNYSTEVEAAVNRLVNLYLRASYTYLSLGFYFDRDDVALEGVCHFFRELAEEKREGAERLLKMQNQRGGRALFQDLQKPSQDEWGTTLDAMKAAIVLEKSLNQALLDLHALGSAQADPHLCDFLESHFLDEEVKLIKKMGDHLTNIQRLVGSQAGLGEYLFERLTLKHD
Description: The previously-reported apoferritin-1-AMA binding assay was miniaturized to 3 µL in 1,536-well plates.
Throughout the screen, reagent bottles and all liquid lines were made light-tight to minimize reagent degradation. Activity was computed as the normalized fluorescence response relative to free 1-AMA and 1-AMA/apoferritin complex values. Concentration–effect relationships were derived by using publicly-available curve-fitting algorithms developed in-house (http://ncgc.nih.gov/pub/openhts/). A four parameter Hill equation was fitted to the concentration-response data by minimizing the residual error between the modeled and observed responses.

apoferritin = molecular target: T2, apoferritin (Equus caballus, UniProt P02791); assay: Isothermal titration calorimetry (ITC) of compound into apoferritin; details: for ITC evidence of binding (in words): enthalpogram
T2 sequence (P02791 2-175 limits assumed): T1 sequence (P02791 2-175 limits assumed)

[1] = computed directly from 1-AMA inhibition data, infinite value fixed to -70%, seven concentrations 77 µM to 25 nM, read-out: qHTS IC50

SMILES	IC50 (horse spleen apoferritin; [1])	Kd (apoferritin)	other results
CC(N)c1cccc(Cl)c1Cl (racemic) [D-103, (±)-2,3-Dichloro-alpha-methylbenzylamine hydrochloride]	94 µM	506 µM	
CCOC(=O)C(C)(C)Oc1ccc(Cl)cc1 [C-6643, Clofibrate]	105 µM	11.5 µM	
O=c1oc(Cl)c(Cl)c2ccccc12 [D-7910, 3,4-Dichloroisocoumarin]	129 µM		
CC(C)c1cccc(C(C)C)c1O [D-126608, 2,6-diisopropylphenol (propofol)]		5 µM	IC50 (horse spleen apoferritin): 67 µM; qHTS screen outcome (in words) (horse spleen apoferritin; LOPAC1280 screen with filters): successfully identified in this screen
CC1(C)CCC2=C(O1)c1ccccc1C(=O)C2=O [L-2037, β-Lapachone]	33 µM		
c1ccc([C@H]2CN3CCSC3=N2)cc1 [L-9756, (-)-Tetramisole hydrochloride]	194 µM	233 µM	
C#CCN(C)C(C)Cc1ccccc1 (stereo not drawn) [M-003, R-(-)-Deprenyl hydrochloride]		74 µM	IC50 (horse spleen apoferritin): 100 µM
Cc1cccc(C#Cc2ccccc2)n1 [M-5435, 6-Methyl-2-(phenylethynyl)pyridine]	152 µM	313 µM	
CN(N=O)c1ccc(O)c(O)c1 [M-9440, Methyl-3,4-dephostatin]		284 µM	IC50 (horse spleen apoferritin): 155 µM
O=Nc1ccc2oc(=O)ccc2c1 [N-8403, 6-Nitroso-1,2-benopyrone]	107 µM	37.9 µM	
C=C1C(=O)O[C@H]2[C@H]1CC/C(C)=C/CC[C@@]1(C)O[C@@H]21 [P-0667, Parthenolide]	68 µM	35.9 µM	
COc1ccc2c(c1)/C(=C/c1cnc[nH]1)C(=O)N2 [S-1693, SU 9516]	88 µM		inhibition at 77 µM (horse spleen apoferritin): ~30%; ITC evidence of binding (in words) (apoferritin): failed to provide convincing evidence of binding
Oc1ccc(C2CNCc3sccc32)cc1O (stereo not drawn) [S-3066, SKF-89626 hydrobromide]			inhibition at 77 µM (horse spleen apoferritin): ~30%; ITC evidence of binding (in words) (apoferritin): does not; also recorded: failed to provide convincing evidence of binding
Cc1ccc(O)c(/N=N/c2ccccc2)n1 [S-9186, SIB 1757]	42 µM		
CCSC(=N)Nc1ccc(C(F)(F)F)cc1 [T7188, TFPI hydrochloride]	98 µM	25.3 µM	
N#C/C(=C\c1ccc(O)c(O)c1)C(N)=S [T-7540, Tyrphostin 47]	219 µM	189 µM	
S=C([S-])OC1CC2CC1C1CCCC21.[K+] (stereo not drawn) [T-8543, O-Tricyclo[5.2.1.0^2,6]dec-9-yl dithiocarbonate potassium salt]	16 µM	12.3 µM	ITC evidence of binding (in words) (apoferritin): clear exothermic binding behavior
Cc1cc(C(C)(C)C)cc(C)c1CC1=NCCN1 [X-6000, Xylometazoline hydrochloride]		177 µM	IC50 (horse spleen apoferritin): 167 µM
